Source: patent publication US7062219B2, “Protein fragment complementation assays for high-throughput and high-content screening” (Odyssey Thera Inc., priority 1997, dated 2006)
Entries after “also recorded” stand apart in the source; their conditions may differ.

What was measured:
Chk1/p53 interaction = molecular target: T1, Chk1/p53 interaction (Homo sapiens, UniProt O14757); test: beta-lactamase PCA (BLA PCA) for Chk1/p53 in HEK293E cells; format: cell-based; conditions: HEK293E cells treated with 300 nM camptothecin; 10 micromolar DBH, 50 micromolar Go6976
T1 construct: expressed in transfected cells; host or cells: HEK293E
T1 sequence (O14757 1-476): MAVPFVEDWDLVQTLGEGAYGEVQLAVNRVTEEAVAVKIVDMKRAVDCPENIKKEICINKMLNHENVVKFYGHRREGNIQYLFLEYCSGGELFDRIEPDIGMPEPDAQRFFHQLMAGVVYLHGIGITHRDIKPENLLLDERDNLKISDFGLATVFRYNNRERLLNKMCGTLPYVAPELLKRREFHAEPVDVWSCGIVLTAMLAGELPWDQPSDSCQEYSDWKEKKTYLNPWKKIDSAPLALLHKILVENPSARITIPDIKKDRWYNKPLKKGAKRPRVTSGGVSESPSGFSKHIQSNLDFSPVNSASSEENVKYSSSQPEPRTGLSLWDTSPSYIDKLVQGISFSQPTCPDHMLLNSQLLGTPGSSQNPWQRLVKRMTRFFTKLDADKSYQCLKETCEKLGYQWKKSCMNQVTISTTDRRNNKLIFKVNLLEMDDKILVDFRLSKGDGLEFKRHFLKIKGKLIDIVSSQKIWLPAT
Description: For the BLA PCA, the genes of interest—which were known to be involved in DNA damage response pathways—were fused to BLA reporter fragments, and co-transfected in pairs (in 6 replicates) into HEK293E cells. Specifically, interactions between two key proteins, p53 and the checkpoint kinase, Chk1, were evaluated for their response to the DNA damaging agent camptothecin (CPT) and various known drugs or compounds. Full length cDNAs (sequence verified) encoding p53 [NM_000546] and Chk1 [NM_001274] were amplified by PCR and the resulting fragments fused in-frame to the 3′-end of BLA[1] or BLA[2] through a flexible 10 amino acid linker. The resulting BLA[1]-p53, BLA[2]-p53, and BLA[2]-Chk1 constructs contained an EBNA-1 origin for episomal replication in HEK293E cells, but no selectable markers for long term maintenance in cell culture. All constructs were sequenced to confirm the integrity of the reporter-gene fusion prior to use in assays. […] Hydrolysis of the beta-lactam ring by reconstituted BLA releases free coumarin which has a blue fluorescence. […] For each protein pair, the rate of hydrolysis of the substrate was determined immediately after addition of substrate by a kinetic assay on a Molecular Devices Gemini XS plate reader. Accumulated fluorescent substrate was excited at 345 nm and detected at 440 nm every 10 minutes for a 90 minute period. […]

p53/p53 interaction = test: high-content IFP PCA for p53/p53, nuclear mean fluorescence; format: cell-based, human; conditions: Trichostatin A 0.5 micromolar; for effect on p53/p53 interaction (nuclear mean fluorescence) in the presence of CPT: 500 nM CPT 16 hours, MS-275 10 micromolar, HA 14-1 2 micromolar; for effect on p53/p53 interaction in both assays (absence and presence of CPT): unstimulated and 500 nM CPT-stimulated, LY294002 25 micromolar, SB 203580 25 micromolar, Geldanamycin 2.5 micromolar
Description: Open reading frames of full-length human p53 were fused in-frame to the 5′-end of IFP[1] and the 3′-end of IFP[2] to generate the following constructs in a pcDNA3.1 (Invitrogen) backbone: p53-IFP[1] and IFP[2]-p53. The final p53-IFP[1] construct contained a Zeocin selectable marker, while the IFP[2]-p53 construct contained a hygromycin selectable marker. All fusions were through a flexible linker encoding a 10-amino acid peptide (GlyGlyGlyGlySer)2, also referred to throughout as (GGGGS)2 (SEQ ID No.1). DNAs from recombinant constructs were isolated on a Beckman FX robotic workstation (Beckman Coulter, Fullerton, Calif.) using Qiagen Turbo BioRobot Prep kits or manually using Qiagen Midi Prep kits. Isolated DNAs were quantitated and then normalized to a concentration of 50 ng/microliter.
Approximately 24 hours prior to transfection cells were seeded into 96 well poly-D-Lysine coated plates (Greiner) using a Multidrop 384 peristaltic pump system (Thermo Electron Corp., Waltham, Mass.) at a density of 7,500 cells per well. A total of 100 ng of DNA (p53–IFP[1] and IFP[2]-p53) was co-transfected using Fugene 6 (Roche) according to the manufacturer's protocol. Cells expressing the PCA pair in the absence of stimulation were incubated with medium containing drugs for 30 minutes, 90 minutes, and 8 hours. Alternatively, cells stimulated with camptothecin (CPT) were pre-treated with drugs for 2 hours, then incubated with 500 nM CPT for an additional 16 hours in the presence of the following test compounds that were known or suspected to affect the p53 pathway: CPT, genistein, Trichostatin A, MS-275, LY294002, SB203580, HA14-1, or Geldanamycin, at the concentrations indicated in the Legend to FIG. 4. […] Fluorescence resulting from IFP PCA was captured using the Discovery-1automated fluorescence imager (Molecular Devices, Inc.) equipped with a robot arm (CRS Catalyst Express; Thermo Electron Corp., Waltham, Mass.). Images were acquired for YFP fluorescence (excitation filter: 480/40 nm; emission filter 535/50 nm), Hoechst fluorescence (excitation filter: 360/40 nm; emission filter 465/30 nm), and Texas Red fluorescence (excitation filter: 560/50 nm; emission filter 650/40 nm). […]
Automated image analysis was performed using Image J freeware to quantitate the level of fluorescence contributed by the PCA in each image. For the p53:p53 PCA, background contributed by cellular auto-fluorescence was subtracted from each image, then the mean pixel fluorescence intensity was determined within the nucleus of each cell. […] Quantitative values for the unstimulated PCA are shown in mauve, with data from the CPT-stimulated assay shown in blue. […]

p50/p65 complex = test: stable HEK293T p50/p65 YFP PCA cell line, nuclear translocation (N:C ratio); format: cell-based; conditions: 10 micromolar compound, 25 ng/ml TNF 30 minutes
Description: Stable cell lines represent the gold standard for HTS since the assays can be reconstructed at any time from frozen stocks of cells. […] First, cells were co-transfected with YFP[2]-p65 encoding vectors, and stable cell lines were selected using 100 micrograms/ml of Hygromycin B (Invitrogen). Selected cell lines were then transfected with YFP[1]-p50. Stable cell lines expressing YFP[1]-p50/YFP[2]-p65 were isolated following double antibiotic selection with 50 μg/ml Hygromycin B and 500 μg/ml Zeocin. Cell clones stably expressing the fusion genes were identified by immunoblot analysis and fluorescence microscopy. A single cell line of each transfectant was selected for further characterization. Fluorescence of these lines is stable over at least 25 passages (data not shown). A stable, MEK/ERK cell line—constructed as described below—was used as a control for TNF effects. Fugene 6 (Roche) was used for all the transfections according to manufacturer's directions. Cells stably expressing YFP[1]-p50/YFP[2]-p65 were seeded at 20,000 cells/well in black-walled poly-lysine coated 96 well plate (Greiner). Twenty-four hours later, the cells were incubated with human TNF-alpha (Roche) for 30 min. Nuclei were stained with Hoechst 33342 (Molecular Probes) at 10 micrograms/ml for 10 min. Cells were rinsed with HBSS (Invitrogen) and kept in the same buffer. Fluorescence was visualized and images were acquired using a Discovery-1 automated fluorescence imager (Molecular Devices, Inc.) equipped with excitation and emission filters 470/35 and 535/60, respectively. […] For the high throughput screening campaign described below, cells were pretreated with compounds (10 micromolar) for 60 minutes and then stimulated with TNFalpha for 30 minutes in the presence of drugs. Cells were then fixed with 2% formaldehyde in HBSS and subsequently stained with Hoechst 33342. All liquid handling was done using a Biomek FX (Beckman) instrument and images were acquired as described above. Images were analyzed using Image J. Translocation is assessed by calculating the nuclear/cytoplasmic ratio of the mean fluorescence intensity for a population of cells (denoted as n) over several images for a given condition.
Genesis Plus is a collection of 960 diverse compounds, and includes compounds with known toxicity or fluorescent properties. Inclusion of compounds with such properties is important in HTS assay validation, as they might complicate analysis. The final concentration of compounds in wells was 10 micromolar, and all wells contained 0.5% DMSO concentration. […] Following fixation and staining of nuclei, fluorescence was analyzed on the automated fluorescent microscopy platform (Discovery 1; Universal Imaging/Molecular Devices Corp.). […]

Cn1c2ccccc2c2c3c(c4c5ccccc5n(CCC#N)c4c21)CNC3=O [Go6976]
effect on the interaction between Chk1 and p53 (mean rate of hydrolysis of BLA substrate) (Chk1/p53 interaction): significant effects

Nc1ccccc1NC(=O)c1ccc(CNC(=O)OCc2cccnc2)cc1 [MS-275]
effect on p53/p53 interaction (nuclear mean fluorescence) in the presence of CPT (p53/p53 interaction): significantly stimulated

C[S+]([O-])c1ccc(-c2nc(-c3ccncc3)c(-c3ccc(F)cc3)[nH]2)cc1 (centres unmarked) [SB 203580]
effect on p53/p53 interaction in both assays (absence and presence of CPT) (p53/p53 interaction): increased association

Cn1c(=O)[nH]c(=O)c2[nH]cnc21 [3-methylxanthine]
result in Genesis Plus library screen of p50/p65 PCA (p50/p65 complex): called as hits

C=C(C)[C@H]1Cc2c(ccc3c2O[C@@H]2COc4cc(OC)c(OC)cc4[C@@H]2C3=O)O1 [rotenone]
result in Genesis Plus library screen of p50/p65 PCA (p50/p65 complex): called as hits

NC1=N/C(=C2/CCNC(=O)c3[nH]ccc32)C(=O)N1 [DBH]
effect on the interaction between Chk1 and p53 (mean rate of hydrolysis of BLA substrate) (Chk1/p53 interaction): significant effects

CC(/C=C/C(=O)NO)=C\[C@@H](C)C(=O)c1ccc(N(C)C)cc1 [Trichostatin A]
effect on p53/p53 interaction (nuclear mean fluorescence) in the presence of CPT (p53/p53 interaction): dramatic increase; also recorded: significantly stimulated
effect on p53/p53 interaction in both assays (absence and presence of CPT) (p53/p53 interaction): potentiating effect
